ChEMBL document CHEMBL3046208, “Natural and synthetic podolactones with potential use as natural herbicide models” (2000)
The source made the active and inactive calls. The calls are words filed in the database; no cut-off is given here.

Assays:
Format in all cases: functional
Triticum aestivum [1] = test: Stimulation of root length of Triticum aestivum (wheat) at 0.1 mM after 5 days relative to untreated control
Solanum lycopersicum [2] = test: Stimulation of root length of Solanum lycopersicum (tomato) at 0.1 mM after 5 days relative to untreated control
Triticum aestivum [3] = test: Stimulation of shoot length of Triticum aestivum (wheat) at 0.1 mM after 5 days relative to untreated control
Lactuca sativa [4] = test: Stimulation of root length of Lactuca sativa cv. Roman (lettuce) at 0.1 mM after 5 days relative to untreated control
Hordeum vulgare [5] = test: Stimulation of shoot length of Hordeum vulgare (barley) at 0.1 mM after 5 days relative to untreated control
Lactuca sativa [6] = test: Inhibition of root length of Lactuca sativa cv. Roman (lettuce) at 0.1 mM after 5 days relative to untreated control
Lactuca sativa [7] = test: Inhibition of shoot length of Lactuca sativa cv. Nigra (lettuce) at 0.1 mM after 5 days relative to untreated control; conditions: 120 h
Lepidium sativum [8] = test: Inhibition of shoot length of Lepidium sativum at 0.1 mM after 5 days relative to untreated control; conditions: 120 h
Solanum lycopersicum [9] = test: Stimulation of germination of Solanum lycopersicum (tomato) at 0.1 mM after 5 days relative to untreated control
Lepidium sativum [10] = test: Stimulation of germination of Lepidium sativum at 0.1 mM after 5 days relative to untreated control
Triticum aestivum [11] = test: Inhibition of root length of Triticum aestivum (wheat) at 0.1 mM after 5 days relative to untreated control
Hordeum vulgare [12] = test: Stimulation of germination of Hordeum vulgare (barley) at 0.1 mM after 5 days relative to untreated control
Solanum lycopersicum [13] = test: Stimulation of shoot length of Solanum lycopersicum (tomato) at 0.1 mM after 5 days relative to untreated control
Hordeum vulgare [14] = test: Inhibition of germination of Hordeum vulgare (barley) at 0.1 mM after 5 days relative to untreated control; conditions: 120 h
Allium cepa [15] = test: Inhibition of root length of Allium cepa (onion) at 0.1 mM after 5 days relative to untreated control
Lepidium sativum [16] = test: Inhibition of germination of Lepidium sativum at 0.1 mM after 5 days relative to untreated control
Allium cepa [17] = test: Inhibition of germination of Allium cepa (onion) at 0.1 mM after 5 days relative to untreated control
Hordeum vulgare [18] = test: Inhibition of shoot length of Hordeum vulgare (barley) at 0.1 mM after 5 days relative to untreated control
Allium cepa [19] = test: Inhibition of shoot length of Allium cepa (onion) at 0.1 mM after 5 days relative to untreated control; conditions: 120 h
Lactuca sativa [20] = test: Stimulation of root length of Lactuca sativa cv. Nigra (lettuce) at 0.1 mM after 5 days relative to untreated control
Lactuca sativa [21] = test: Stimulation of germination of Lactuca sativa cv. Roman (lettuce) at 0.1 mM after 5 days relative to untreated control
Lepidium sativum [22] = test: Inhibition of root length of Lepidium sativum at 0.1 mM after 5 days relative to untreated control; conditions: 120 h
Allium cepa [23] = test: Stimulation of shoot length of Allium cepa (onion) at 0.1 mM after 5 days relative to untreated control
Lactuca sativa [24] = test: Stimulation of shoot length of Lactuca sativa cv. Nigra (lettuce) at 0.1 mM after 5 days relative to untreated control
Solanum lycopersicum [25] = test: Inhibition of germination of Solanum lycopersicum (tomato) at 0.1 mM after 5 days relative to untreated control
Triticum aestivum [26] = test: Stimulation of germination of Triticum aestivum (wheat) at 0.1 mM after 5 days relative to untreated control
Lepidium sativum [27] = test: Stimulation of shoot length of Lepidium sativum at 0.1 mM after 5 days relative to untreated control
Allium cepa [28] = test: Stimulation of root length of Allium cepa (onion) at 0.1 mM after 5 days relative to untreated control
Solanum lycopersicum [29] = test: Inhibition of root length of Solanum lycopersicum (tomato) at 0.1 mM after 5 days relative to untreated control; conditions: 120 h
Triticum aestivum [30] = test: Inhibition of germination of Triticum aestivum (wheat) at 0.1 mM after 5 days relative to untreated control
Lepidium sativum [31] = test: Stimulation of root length of Lepidium sativum at 0.1 mM after 5 days relative to untreated control
Allium cepa [32] = test: Stimulation of germination of Allium cepa (onion) at 0.1 mM after 5 days relative to untreated control
Hordeum vulgare [33] = test: Inhibition of root length of Hordeum vulgare (barley) at 0.1 mM after 5 days relative to untreated control; conditions: 120 h
Solanum lycopersicum [34] = test: Inhibition of shoot length of Solanum lycopersicum (tomato) at 0.1 mM after 5 days relative to untreated control; conditions: 120 h
Hordeum vulgare [35] = test: Stimulation of root length of Hordeum vulgare (barley) at 0.1 mM after 5 days relative to untreated control
Lactuca sativa [36] = test: Stimulation of shoot length of Lactuca sativa cv. Roman (lettuce) at 0.1 mM after 5 days relative to untreated control
Lactuca sativa [37] = test: Inhibition of root length of Lactuca sativa cv. Nigra (lettuce) at 0.1 mM after 5 days relative to untreated control; conditions: 120 h
Lactuca sativa [38] = test: Stimulation of germination of Lactuca sativa cv. Nigra (lettuce) at 0.1 mM after 5 days relative to untreated control
Lactuca sativa [39] = test: Inhibition of germination of Lactuca sativa cv. Nigra (lettuce) at 0.1 mM after 5 days relative to untreated control; conditions: 120 h
Lactuca sativa [40] = test: Inhibition of shoot length of Lactuca sativa cv. Roman (lettuce) at 0.1 mM after 5 days relative to untreated control; conditions: 120 h
Lactuca sativa [41] = test: Inhibition of germination of Lactuca sativa cv. Roman (lettuce) at 0.1 mM after 5 days relative to untreated control; conditions: 120 h
Triticum aestivum [42] = test: Inhibition of shoot length of Triticum aestivum (wheat) at 0.1 mM after 5 days relative to untreated control
Hordeum vulgare [43] = test: Inhibition of germination of Hordeum vulgare (barley) at 10 nM after 5 days relative to untreated control; conditions: 120 h

## C[C@]1(C(=O)O)CCC[C@]2(C)C3=CC(=O)OC[C@]34O[C@@H]4C[C@@H]12
Triticum aestivum [1]
  Activity: inactive
Solanum lycopersicum [2]
  Activity: 20%
Triticum aestivum [3]
  Activity: inactive
Lactuca sativa [4]
  Activity: inactive
Hordeum vulgare [5]
  Activity: inactive
Lactuca sativa [6]
  inhibition: inactive
Lactuca sativa [7]
  inhibition at 100 µM: < 20%
Lepidium sativum [8]
  inhibition at 100 µM: 20%
Solanum lycopersicum [9]
  Activity: inactive
Lepidium sativum [10]
  Activity: inactive
Triticum aestivum [11]
  inhibition: inactive
Hordeum vulgare [12]
  Activity: >40%
Solanum lycopersicum [13]
  Activity: <20%
Hordeum vulgare [14]
  inhibition at 100 µM: > 40%
Allium cepa [15]
  inhibition: inactive
Lepidium sativum [16]
  inhibition: inactive
Allium cepa [17]
  inhibition: inactive
Hordeum vulgare [18]
  inhibition: inactive
Allium cepa [19]
  inhibition at 100 µM: < 20%
Lactuca sativa [20]
  Activity: <20%
Lactuca sativa [21]
  Activity: <20%
Lepidium sativum [22]
  inhibition at 100 µM: < 20%
Allium cepa [23]
  Activity: <20%
Lactuca sativa [24]
  Activity: <20%
Solanum lycopersicum [25]
  inhibition: inactive
Triticum aestivum [26]
  Activity: inactive
Lepidium sativum [27]
  Activity: 20%
Allium cepa [28]
  Activity: inactive
Solanum lycopersicum [29]
  inhibition at 100 µM: 20%
Triticum aestivum [30]
  inhibition: inactive
Lepidium sativum [31]
  Activity: <20%
Allium cepa [32]
  Activity: inactive
Hordeum vulgare [33]
  inhibition at 100 µM: 20%
Solanum lycopersicum [34]
  inhibition at 100 µM: < 20%
Hordeum vulgare [35]
  Activity: 20%
Lactuca sativa [36]
  Activity: <20%
Lactuca sativa [37]
  inhibition at 100 µM: < 20%
Lactuca sativa [38]
  Activity: <20%
Lactuca sativa [39]
  inhibition at 100 µM: < 20%
Lactuca sativa [40]
  inhibition at 100 µM: < 20%
Lactuca sativa [41]
  inhibition at 100 µM: < 20%
Triticum aestivum [42]
  inhibition: inactive
Hordeum vulgare [43]
  inhibition at 0.01 µM: -72%
